Data from article PMC8217170, “Phase Ib dose-escalation study of the hypoxia-modifier Myo-inositol trispyrophosphate in patients with hepatopancreatobiliary tumors” (Nature Communications, 2021).
Values joined by “and” are separate entries in the source; they are usually repeats but may differ in a detail not shown here. Identical values can stand only once. Like-named read-outs stand apart in the source and are kept apart here.

Legend:
[1] = set-up: method as in NormOxys phase I clinical trial; conditions: ref NormOxys phase I clinical trial, cited from earlier work
Vimentin = assay: Immunohistochemistry of tumor tissue before vs after ITPP, one patient; type: in vivo, human
Experimental: (§1) Samples were collected in 4% buffered formaldehyde, dehydrated, embedded in paraffin and cut into 5 µm sections and stained after antigen retrieval. Hematoxylin/eosin and Masson’s trichrome stains were performed according to standard protocols. The following antibodies were used for immunohistochemical staining: pan-B cytokeratin (CkpanB, Dako, M3515, dilution 1/50), HIF1α (Abcam, ab16066, dilution 1/400), HIF2α (Abcam, ab199, dilution 1/50), carbonic anhydrase 9 (CA9, Abcam, ab15086, dilution 1/3000), glucose transporter 1/SLC2A1 (GLUT1, Millipore, 07-1401, dilution 1/1000), PECAM1 / CD31 (Dako, M0823, dilution 1/10), ETS transcription factor (ERG, Roche, 790-4576, prediluted) and vimentin (VIM, Dako, M7020, dilution 1/250). For histological analyses, 5 random images of tumor areas of stained slides were taken at 40x magnification. Stained areas were isolated by color deconvolution and thresholding. Quantification of staining intensity was measured on thresholded areas, converted onto a scale from 0 (white, no staining) to 100 (black, completely stained) and compared between the sample taken before ITPP treatment and the one after. For calculation of percentage area stained, thresholded areas were compared to the complete area of the picture. ImageJ (V1.53c, National Institutes of Health, USA) was used for all histological analyses.
(§2) This analyses must be regarded with caution due to n=1!

ERG = assay: as above; type: in vivo, human
Experimental: as §1, §2

PECAM1/CD31 = assay: as above; type: in vivo, human; conditions: CD31 stain, group After (ITPP), one value per image field; threshold 0-90
Experimental: as §1, §2

HIF2α = assay: as above; type: in vivo, human; conditions: patient nr. 21, CRLM, only weak staining
Experimental: as §1, §2

[2] = system: carbonic anhydrase 9 (CA9); assay: as above; type: in vivo, human
Experimental: as §1, §2

HIF1α = assay: as above; type: in vivo, human
Experimental: as §1, §2

SLC2A1/GLUT1 = assay: as above; type: in vivo, human; conditions: patient nr. 21, CRLM
Experimental: as §1, §2

[3] = in vivo
ANG2 = assay: Serum angiogenesis marker, multiplex bead-based immunoassay (LEGENDplex); type: in vivo, human; set-up: ANG2: unit not given here; conditions: for ANG2: serum, duplicate wells
[4] = system: colorectal liver metastasis; conditions: cited from earlier work; for Survival: ref 16 (supplementary references)
ANG1 = assay: Serum angiogenesis marker, multiplex bead-based immunoassay (LEGENDplex); type: in vivo, human; set-up: ANG1: unit not given here; conditions: for ANG1: serum, duplicate wells
[5] = following ITPP treatment, 27 patients
[6] = Patient 25, Cohort 8, PDAC, Day 3 post
[7] = Patient 25, Cohort 8, PDAC, Day 9 post
[8] = Patient 26, Cohort 8, PDAC, Day 3 post
[9] = Patient 26, Cohort 8, PDAC, Day 9 post
[10] = Patient 27, Cohort 8, CCC, Day 3 post
[11] = Patient 27, Cohort 8, CCC, Day 9 post
[12] = Patient 28, Cohort 8, CRLM, Day 3 post
[13] = Patient 28, Cohort 8, CRLM, Day 9 post

O=P1(O)OC2C3OP(=O)(O)OP(=O)(O)OC3C3OP(=O)(O)OP(=O)(O)OC3C2OP(=O)(O)O1 (centres unmarked) [ITPP, Myo-inositol trispyrophosphate]
Subjects with treatment-emerged adverse effects (TEAEs) ([1]; ITPP-treated group, 750 to 5600 mg/m2, intravenous infusion during 4 h): 9/24 | Dose well tolerated in unaffected volunteers [1]: 5600 mg/m2 | Serious adverse effects or deaths associated with TEAEs [1]: No serious adverse effects (SAEs) or deaths | %Area (Vimentin; Vim stain, group After (ITPP), one value per image field, threshold 0-160): 29.786% and 30.117% and 24.166% and 28.151% and 26.502% | Vimentin after ITPP administration (Vimentin; patient nr. 21, CRLM): decreased | %Area (ERG; Erg stain, group After (ITPP), one value per image field, threshold 0-130): 0.53% and 0.557% and 0.323% and 0.603% and 0.393% | ERG after ITPP treatment (ERG; patient nr. 21, CRLM): more abundant | %Area (PECAM1/CD31): 1.371% and 1.754% and 0.512% and 2.094% and 0.52% | HIF2α staining, before vs after ITPP treatment (HIF2α): no difference | %Area ([2]; CAIX stain, group After (ITPP), one value per image field, threshold 0-130): 0.006% and 0.014% and 0.943% and 0.008% and 0.048% | Expression of carbonic anhydrase 9 (CA9) after ITPP treatment ([2]; patient nr. 21, CRLM): decreased | %Area (HIF1α; HIF1a stain, group After (ITPP), one value per image field, threshold 0-220): 60.518% and 62.226% and 71.026% and 45.098% and 63.507% | HIF1α staining, before vs after ITPP treatment (HIF1α; patient nr. 21, CRLM, only weak staining): no difference | Expression of SLC2A1/GLUT1 in cancer cells after ITPP treatment (SLC2A1/GLUT1): downregulated | Time of peak plasma levels (Cmax) after infusion start ([3]; human): 6 h | ITPP baseline levels at infusion start (Cmin) [3]: below the detection threshold | Share of patients with reduced ANG2 (ANG2; [5]): 59.3% | ANG2 (ANG2; [6]): 228.25 | ANG2 (ANG2; [7]): 251.99 and 267.93 | ANG2 (ANG2; [8]): 4.97 and 2.94 | ANG2 (ANG2; [9]): 13.32 and 15.98 | ANG2 (ANG2; [10]): 207.26 and 180.83 | ANG2 (ANG2; [11]): 218.06 and 212.68 | ANG2 (ANG2; [12]): 323.31 and 262.92 | ANG2 (ANG2; [13]): 200.18 and 179.44 | Survival ([4]; FOLFOX combined with ITPP, 10 days, five times each on alternate days): 153 days | Survival ([4]; FOLFOX given following ITPP treatment): 152 days | Survival ([4]; ITPP alone): 65.5 days | Extension of survival ([4]; syngeneic mouse model of colorectal liver metastasis, 17 (supplementary references)): 60% | Share of patients with reduced ANG1 (ANG1; [5]): 51.9% | ANG1 (ANG1; [6]): 692.38 | ANG1 (ANG1; [7]): 719.05 and 765.98 | ANG1 (ANG1; [8]): 143.21 and 130.63 | ANG1 (ANG1; [9]): 207.7 and 218.53 | ANG1 (ANG1; [10]): 904.42 and 799.6 | ANG1 (ANG1; [11]): 835.71 and 800.95 | ANG1 (ANG1; [12]): 981.48 and 747.77 | ANG1 (ANG1; [13]): 618.86 and 532.8
